{
  "source": "patent US6747022B2",
  "about": "“Calcium salts of 1,5-benzodiazepine derivatives, process for producing the salts and drugs containing the same” (Zeria Pharmaceutical Co., Ltd., priority 1999, dated 2004)",
  "key": {"[1]": {"tested_on": "pentagastrin-stimulated gastric acid secretion", "experiment": "Test on inhibition of pentagastrin-stimulated gastric acid secretion", "type": "in vivo, rat", "settings": "SD rats, 0.03 mg/kg intraduodenal, acid output 1 to 4 hours after administration, pentagastrin 15 μg/kg/hr", "experimental": "Test on Inhibition of Pentagastrin-stimulated Gastric Acid Secretion\nMale Sprague-Dawley (SD)-strain rats were used. Under anesthesia with ether, each rat was subjected to the operation for pylorus ligation and placement of a duodenal catheter and gastric fistula. After completion of the operation, each rat was held in a Bollman-type cage and constantly infused with 15 μg/kg/hr of pentagastrin through the tail vein. Test compounds were suspended in a 0.5% sodium carboxymethylcellulose solution (which will hereinafter be called “vehicle”). Administration of the vehicle or test compound was carried out through the intraduodenal catheter 1 hour after the beginning of pentagastrin infusion. Acidity of the collected gastric juice was measured by an automatic titrator. Acid output was determined by multiplying the volume of gastric juice by its acidity. Inhibition of acid output for 3 hours from 1 to 4 hours after administration of the test compound was calculated by the following equation.\nInhibition (%)=(mean acid output of vehicle administered group−mean acid output of compound group)/mean acid output of vehicle administered group×100"}, "[2]": {"experiment": "Test on hygroscopicity under high humidity conditions (2), 0.1 g sample", "type": "physicochemical", "experimental": "(§1) Test 3 (Test on Hygroscopicity under High Humidity Conditions)\n(2) A saturated aqueous solution of potassium sulfate was charged in a desiccator and was allowed to stand for at least one day in a temperature controlled room set at 25° C. The sample (0.1 g) was stored and weighed. Hygroscopicity was measured by its weight change. The relative humidity at that time was 97.3% RH."}, "CCK-B receptor": {"biological_target": "T1, CCK-B receptor (Cavia porcellus, UniProt H0VZC5)", "T1 sequence (H0VZC5 1-426)": "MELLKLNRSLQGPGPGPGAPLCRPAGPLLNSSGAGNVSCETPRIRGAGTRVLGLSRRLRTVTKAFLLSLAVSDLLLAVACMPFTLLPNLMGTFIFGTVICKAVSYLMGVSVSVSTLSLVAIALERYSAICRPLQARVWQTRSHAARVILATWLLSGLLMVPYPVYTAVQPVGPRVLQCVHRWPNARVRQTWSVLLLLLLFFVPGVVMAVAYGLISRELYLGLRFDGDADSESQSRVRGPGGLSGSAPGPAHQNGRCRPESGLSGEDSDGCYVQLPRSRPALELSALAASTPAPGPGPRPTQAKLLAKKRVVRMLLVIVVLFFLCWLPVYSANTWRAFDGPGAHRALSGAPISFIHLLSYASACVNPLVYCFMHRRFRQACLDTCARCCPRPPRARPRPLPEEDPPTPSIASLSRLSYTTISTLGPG", "experiment": "Binding test to CCK-B receptor ([3H]CCK-8, cerebral cortex membranes)", "parameters": "species or system guinea pig", "settings": "inhibition of specific binding of 1.0 nM [3H]CCK-8, 25° C., 2 hours", "experimental": "Binding Test to CCK-B Receptor\nThe cerebral cortex excised from a Hartley-strain male guinea pig was homogenized in 50 times the amount of a 50 mM Tris-HCl buffer (pH 7.4), followed by centrifugal separation at 50000×g for 10 minutes. Addition of the same amount of the same buffer to the precipitate thus obtained and centrifugation were repeated 2 times. The final precipitate was homogenized in a 10 mM HEPES buffer (pH 6.5) containing 5 mM magnesium chloride, 1 mM EGTA, 0.25 mg/ml bacitracin and 130 mM sodium chloride, and used as the receptor preparation.\nBinding assay was conducted by adding, to 50 μl of a test compound solution, 50 μl of a [^3H]CCK-8 solution having the final concentration of 1.0 nM and 900 μl of the receptor preparation (protein content: 800 μg/tube) and reacting them at 25° C. for 2 hours. After completion of the reaction, the mixture was suction filtrated through a Whatman GF/B filter treated in advance with 0.1% BSA. Rightly after filtration, the filter was washed four times, each with 3 ml of ice-cold 50 mM Tris-HCl buffer (pH 7.4). After a scintillator was added to the filter and the resulting filter was then allowed to stand for a day, radioactivity on the filter was measured by a liquid scintillation counter. The binding of [^3H]CCK-8 in the presence of 1 μM CCK-8 when the test compound was not added was defined as non-specific binding. […]"}, "[3]": {"experiment": "Test on hygroscopicity under high humidity conditions (1), 0.5 g sample", "type": "physicochemical", "experimental": "as §1\n(1) A saturated aqueous solution of potassium sulfate was charged in a desiccator and was allowed to stand for at least one day in a temperature controlled room set at 25° C. The sample (0.5 g) was stored and weighed. Hygroscopicity was measured by its weight change. The relative humidity at that time was 97.3% RH."}},
  "data": [
    {"compound": "calcium (R)-(−)-2-[3-[3-(1-tert-butylcarbonylmethyl-2-oxo-5-cyclohexyl-1,3,4,5-tetrahydro-2H-1,5-benzodiazepin-3-yl)ureido]phenyl]-2-methylpropionate [Compound of Example 4 (Ca salt)]", "values": [
      {"measurement": "Inhibition of acid output (%)", "setting": "[1]; Table 2", "result": 46.1, "unit": "%"},
      {"measurement": "Hygroscopicity compared with the corresponding Na salt", "setting": "[2]; 25° C., 97.3% RH, versus Compound of Example 5 in WO99/64403", "result": "lower hygroscopicity"},
      {"measurement": "Weight change (%) when stored at 25° C. and 97.3% RH", "setting": "[2]; storage days 0", "result": 0, "unit": "%"},
      {"measurement": "Weight change (%) when stored at 25° C. and 97.3% RH", "setting": "[2]; storage days 2", "result": 8.15, "unit": "%"},
      {"measurement": "Weight change (%) when stored at 25° C. and 97.3% RH", "setting": "[2]; storage days 4", "result": 7.87, "unit": "%"},
      {"measurement": "Weight change (%) when stored at 25° C. and 97.3% RH", "setting": "[2]; storage days 7", "result": 8.38, "unit": "%"},
      {"measurement": "Weight change (%) when stored at 25° C. and 97.3% RH", "setting": "[2]; storage days 9", "result": 9.07, "unit": "%"},
      {"measurement": "Weight change (%) when stored at 25° C. and 97.3% RH", "setting": "[2]; storage days 11", "result": 8.14, "unit": "%"},
      {"measurement": "Weight change (%) when stored at 25° C. and 97.3% RH", "setting": "[2]; storage days 18", "result": 8.51, "unit": "%"},
      {"measurement": "Weight change (%) when stored at 25° C. and 97.3% RH", "setting": "[2]; storage days 30", "result": 8.23, "unit": "%"}
    ]},
    {"compound": "CC(C)(C)C(=O)CN1C(=O)[C@H](NC(=O)Nc2cccc(C(=O)O)c2)CN(C2CCCCC2)c2ccccc21", "note": "[Compound of Example 1 in the free form, (R)-(−)-3-[3-(1-tert-butylcarbonylmethyl-2-oxo-5-cyclohexyl-1,3,4,5-tetrahydro-2H-1,5-benzodiazepin-3-yl)ureido]benzoic acid, reference compound]", "values": [
      {"measurement": "Inhibition of acid output (%)", "setting": "[1]", "result": 4.8, "unit": "%"},
      {"measurement": "IC50", "setting": "CCK-B receptor", "result": 1.45, "unit": "nM"}
    ]},
    {"compound": "CC(C)(C)C(=O)CN1C(=O)[C@H](NC(=O)Nc2cccc(C(=O)[O-])c2)CN(C2CCCCC2)c2ccccc21.CC(C)(C)C(=O)CN1C(=O)[C@H](NC(=O)Nc2cccc(C(=O)[O-])c2)CN(C2CCCCC2)c2ccccc21.[Ca+2]", "note": "[Compound of Example 1 (Ca salt), calcium (R)-(−)-3-[3-(1-tert-butylcarbonylmethyl-2-oxo-5-cyclohexyl-1,3,4,5-tetrahydro-2H-1,5-benzodiazepin-3-yl)ureido]benzoate]", "values": [
      {"measurement": "Inhibition of acid output (%)", "setting": "[1]", "result": 42.3, "unit": "%"},
      {"measurement": "IC50", "setting": "CCK-B receptor", "result": 1.68, "unit": "nM"},
      {"measurement": "Hygroscopicity compared with the corresponding Na salt", "setting": "[3]; 25° C., 97.3% RH, versus Na salt of Compound of Example 143 in WO98/25911", "result": "lower hygroscopicity"},
      {"measurement": "Weight change (%) when stored at 25° C. and 97.3% RH", "setting": "[3]; storage time 0 day", "result": 0, "unit": "%"},
      {"measurement": "Weight change (%) when stored at 25° C. and 97.3% RH", "setting": "[3]; storage time 1 day", "result": 4.61, "unit": "%"},
      {"measurement": "Weight change (%) when stored at 25° C. and 97.3% RH", "setting": "[3]; storage time 2 days", "result": 5.00, "unit": "%"},
      {"measurement": "Weight change (%) when stored at 25° C. and 97.3% RH", "setting": "[3]; storage time 3 days", "result": 4.94, "unit": "%"},
      {"measurement": "Weight change (%) when stored at 25° C. and 97.3% RH", "setting": "[3]; storage time 4 days", "result": 4.97, "unit": "%"},
      {"measurement": "Weight change (%) when stored at 25° C. and 97.3% RH", "setting": "[3]; storage time 10 days", "result": 5.43, "unit": "%"},
      {"measurement": "Weight change (%) when stored at 25° C. and 97.3% RH", "setting": "[3]; storage time 14 days", "result": 5.41, "unit": "%"}
    ]},
    {"compound": "CC(C)(C)C(=O)CN1C(=O)[C@H](NC(=O)Nc2cccc(C(C)(C)C(=O)O)c2)CN(C2CCCCC2)c2ccccc21", "note": "[Compound of Example 4 in the free form, (R)-(−)-2-[3-[3-(1-tert-butylcarbonylmethyl-2-oxo-5-cyclohexyl-1,3,4,5-tetrahydro-2H-1,5-benzodiazepin-3-yl)ureido]phenyl]-2-methylpropionic acid, reference compound]", "values": [
      {"measurement": "Inhibition of acid output (%)", "setting": "[1]; Table 2", "result": 13.7, "unit": "%"}
    ]}
  ]
}
